# Measurements as given in patent publication US9675576B2, “Polyenolic zinc-binding agents (pezbins) actively promote inactivation of cancer stem cells and potentiate cytotoxic anti-tumor drug substances” (The Research Foundation for The State University of New York, priority 2012, dated 2017).
# Entries after “also recorded” stand apart in the source; their conditions may differ.
# How the values were obtained:
# [1] = system: PPT2-induced tumors; assay: Residual tumors after treatment, viable cells and ex vivo colonies, PPT2; assay type: in vivo, NOD/SCID mice; details: 40, 20, 20, 20 mg/kg weekly, one week after last treatment
# Procedure: (§1) Animals were handled according to protocols that have been approved by the Institutional Animal Care and Use committee of the Stony Brook University. The staff of veterinarians provided veterinary care. The SBT-1214 was administered intravenously (40, 20, 20, 20 mg/kg; weekly) to 6-weeks old NOD/SCID mice. Treatment was started 2-3 weeks after transplantation of the tumor cells, when tumor xenografts reached ˜100 mm^3. Systemic toxicity in NOD/SCID mice was closely monitored and evaluated by standard criteria (motor activity, morbidity, appetite, posture and appearance). One week after the last treatment, all residual tumors were harvested and analyzed histopathologically and for ex vivo clonogenic capacity. One part of each mouse tumor xenograft was snap-frozen in embedding matrix (Lipshaw) and kept at −80° C. before immunohistochemical analysis at standard conditions. […] Ability to induce the round colonies (holoclones) was also determined before and after drug treatment. Cells were counted and plated on 48-well plates at a final count of 300 cells per well. One week after initiation, the plates were inspected for colony growth and the number of colonies within each well was quantified by phase contrast microscopy. After drug treatment, one portion of cells which survived particular treatment regimen was placed at 3D and adherent culture conditions and analyzed. […]
# [2] = system: PC3MM2-induced tumors; assay: Residual tumors after treatment, viable cells and ex vivo colonies, PC3MM2; assay type: in vivo, NOD/SCID mice; details: 40, 20, 20, 20 mg/kg weekly, one week after last treatment
# Procedure: as §1
# [3] = system: PPT2 and PC3MM2 floating spheroids; assay: Sphere formation assay after drug treatment; assay type: cell-based, human; details: 1 μM, 24 hours
# Procedure: In order to obtain prostate cancer spheroids, MACS-CD133 and MACS-CD44 (Miltenyi Biotec, CA) or FACS sorted CD133^high/CD44^high cells were seeded at low numbers on ULA plates (1,000 cells per 6-well plate or 5-10,000 cells per 75 mm flasks) in MSCGM or SPCM. For evaluation of the clonogenic/sphere-forming capacity, cells were counted with Cellometer Auto T4 (Nexcelom Bioscience LLC, MA), resuspended in 1:4 type I collagen/SPCM or 1:4 Matrigel/MSGM and known cell numbers were plated on ULA plates. One week after initiation plates were inspected for floating sphere growth and compact well-shaped spheroids were counted. Spheroids were serially passaged by gentle dissociation and mixing with a new Matrigel/MSGM or type I collagen/SPCM, or reseeded on 48-well plates for final count of 5-10 spheres per well for further propagation and analysis.
# [4] = system: Oct-4, Sox-2, Nanog, Lin-28 and c-Myc; assay: Stem cell-specific PCR array on 3D spheroids induced by CD133high/CD44high cells; assay type: cell-based; details: single treatment with 0.01 μg/ml
# Procedure: Stem cell-specific gene expression profiles were studied with the PCR Array assay (SABiosciences, CA) in accordance with the manufacturer's recommendations. Briefly, total RNA was isolated from different cell populations (cancer stem cells expressing high levels of the CD133 and CD44, or whole floating spheroids that are enriched with CSCs) using PARIS kit (Ambion). Up to 1 μg of total RNA was treated with DNase and cDNA was prepared using RT^2 First Strand kit. For each analysis, pairs of the test and control cDNA samples were mixed with RT^2 qPCR Master mix and distributed across the PCR array 96-well plates, each of which contained 84 stem cell-related probes and control housekeeping genes. After cycling with real-time PCR (Opticon MJ Research or ABI 7300, Applied Biosystems), obtained amplification data (fold-changes in Ct values of all the genes) was analyzed with SABiosciences software.
# Since CSC-enriched CD 133^+ and CD44^+ cell populations are more resistant to conventional therapies than other more differentiated cells, the cytotoxic effects of SBT-1214 were tested against such cell populations in colon (Botchkina et al., 2010) and prostate (FIG. 5) cancers. […]
# [5] = system: c-Myc, Sox-2 and Oct4; assay: Western blot of key transcription factors; assay type: cell-based, human; details: nuclear extracts of CD133+ and bulk PPT2 cells
# Procedure: (§2) Cells were lysed using Active Motif Nuclear Co-ip kit according to manufacturer's protocol. 20 μg of enriched nuclear and cytoplasmic extracts was subjected to electrophoresis in 10% polyacrylamide gel. The proteins were then transferred to a nitrocellulose membrane and developed with appropriate antibodies.
# [6] = system: CD133+ PC3MM2 cells; assay: MTT cytotoxicity assay, CD133+ PC3MM2 cells on type I collagen; assay type: cell-based, human; details: 72 hours, 10 nM-10 μM, stated as up to
# Procedure: (§3) The CSC-specific cytotoxic effects were studied in two different settings both of which are known to maintain/promote sternness phenotype: adherent to type I collagen cultures and 3D cultures of floating spheroids (Baretton, G. B. 1994; Miyoshi, Y. 2000; Koivisto, P. 1995). The CD133^high/CD44^high cells (1×10^3 cells/well) isolated either from PPT2 or PC3MM2 cell lines were seeded onto the type I collagen-coated 96-well plates, cultured in the MSCGM for 2 days, and the treatment was initiated upon 90% confluency. Paclitaxel, SBT-1214 and CMC2.24 were dissolved in sterile DMSO and then serially diluted in MSCGM. […] Cell death was analyzed on adherent type I collagen cell cultures with the MTT assay [MTT=3-(4,5-dimethylthiazol-2-yl)-2,5-diphenyltetrazolium bromide] as recommended by manufacturer (Invitrogen). […]
# The dose-response cytotoxicity of SBT-1214, CMC2.24/and their combination was evaluated by standard MTT assay (all of the in vitro experiments were repeated at least three times and each measurement for the MMT assay was performed in 4 repeats). The dose-response points were plotted as a percentage of the untreated control, the absorbance of which was considered as 100%. Data were expressed as means±SD for each drug concentration. […] Data were expressed as means±SD for control and drug treated tumors. The statistical significance of differences was determined using Student's t-test. […]
# [7] = system: PPT2 and PC3MM2 cell lines; assay: FACS analysis of CD133 expression after drug treatment; assay type: cell-based, human; details: 10 nM to 10 μM, 24 hours, concentration-dependent
# Source text: To ensure more reliable isolation of CSCs, cells were labeled with one or several markers conjugated with different fluorescent dyes, including anti-human CD133/2-APC (clone 293C3; Miltenyi Biotec, CA, USA); CD166-PE (clone 105902; R&D Systems, MN, USA); CD44-FITC (clone F10-44-2), CD44-PE (clone F10-44-2; Invitrogen/Biosources, USA); CD44v6-FITC (clone 2F10; R&D Systems, USA), EpCAM-FITC (Biosource, CA, USA), Pan-Keratin (C11)-Alexa Fluor® 488 (Cell Signaling) and all the isotype controls (Chemicon). Antibodies were diluted in buffer containing 5% BSA, 1 mM EDTA and 15-20% blocking reagent (Miltenyi Biotec) to inhibit unspecific binding to non-target cells. After 15 min incubation at 4° C., stained cells were sorted and analyzed with multiparametric flow cytometer BD FACSAria (Becton Dickinson, CA). Alternatively, dissociated cells were centrifuged at 950 g for 5 min at 4° C., rinsed with sterile MACS buffer (Miltenyi Biotec, CA) and labeled with CD133 Abs directly or indirectly conjugated with ferromagnetic beads (Miltenyi Biotec, CA) as recommended by manufacturer.
# as §3
# [8] = system: PPT2- and PC3MM2-induced tumors; assay: Tumor xenografts induced by CD133+ cells, tumor size; assay type: in vivo, NOD/SCID mice
# Procedure: All experiments involving the use of animals were carried out in strict accordance with the recommendations in the Guide for the Care and Use of Laboratory Animals of the National Institutes of Health, via a research protocol that was approved by Stony Brook University Institutional Animal Care and Use Committee (IACUC). NOD/SCID mice (Charles River Laboratories International, Inc., MA) were maintained under defined conditions at SBU animal facility. After sufficient propagation, CD133^+ cells were resuspended in 1:1 MSCGM/Matrigel and injected to the flanks of 6 weeks old NOD/SCID mice (3,000 cells per mice; subcutaneously). Tumor development was monitored starting from the second week. The primary tumor sizes were measured with a caliper on a weekly basis and approximate tumor weights determined using the formula 0.5ab^2, where b is the smaller of the two perpendicular diameters. All mice were terminated after fourth week of treatment, if the tumor measured ˜2 cm, or at the first sign of suffering.
# Animals were handled according to protocols that have been approved by the Institutional Animal Care and Use committee of the Stony Brook University. […] Systemic toxicity in NOD/SCID mice was closely monitored and evaluated by standard criteria (motor activity, morbidity, appetite, posture and appearance). […] Cells were counted and plated on 48-well plates at a final count of 300 cells per well. […]
# [9] = system: prostate CD133+ cells (PPT2 and PC3MM2); assay: MTT cytotoxicity assay, results stated for prostate CD133+ cells without split by line; assay type: cell-based, human
# Procedure: (§4) The CSC-specific cytotoxic effects were studied in two different settings both of which are known to maintain/promote sternness phenotype: adherent to type I collagen cultures and 3D cultures of floating spheroids (Baretton, G. B. 1994; Miyoshi, Y. 2000; Koivisto, P. 1995). The CD133^high/CD44^high cells (1×10^3 cells/well) isolated either from PPT2 or PC3MM2 cell lines were seeded onto the type I collagen-coated 96-well plates, cultured in the MSCGM for 2 days, and the treatment was initiated upon 90% confluency. Paclitaxel, SBT-1214 and CMC2.24 were dissolved in sterile DMSO and then serially diluted in MSCGM. For testing the SBT-1214/CMC2.24 combination efficacy, the regular MSCGM was replaced with treatment medium containing SBT-1214 or Ptx at selected concentration range (from 10 nM to 10 μM) with 30 μM CMC2.24. Treatment medium was removed 24, 48 or 72 hr later, followed by return to the MSCGM. Cell death was analyzed on adherent type I collagen cell cultures with the MTT assay [MTT=3-(4,5-dimethylthiazol-2-yl)-2,5-diphenyltetrazolium bromide] as recommended by manufacturer (Invitrogen). Spheroids were cultured and treated on ULA plates.
# (§5) The dose-response cytotoxicity of SBT-1214, CMC2.24/and their combination was evaluated by standard MTT assay (all of the in vitro experiments were repeated at least three times and each measurement for the MMT assay was performed in 4 repeats). The dose-response points were plotted as a percentage of the untreated control, the absorbance of which was considered as 100%. Data were expressed as means±SD for each drug concentration. The in vivo responses to drug treatment were evaluated as changes in tumor volume of drug-treated versus untreated control xenografts induced by particular type of cells. Data were expressed as means±SD for control and drug treated tumors. The statistical significance of differences was determined using Student's t-test. The parameters used were the two-tailed distribution and the paired test. P<0.05 was considered statistically significant.
# [10] = Systemic toxicity in tumor-bearing mice; assay type: in vivo, NOD/SCID mice
# Procedure: as §1
# [11] = system: p53 and p21; assay: Western blot of pro-apoptotic proteins; assay type: cell-based, human; details: CD133+ and bulk PPT2 cells, previously not expressed
# Procedure: as §2
# [12] = system: drug-resistant colon tumor xenografts; details: all surviving mice; cited from earlier work
# [13] = system: CD133+ PPT2 cells; assay type: cell-based, human
# Procedure: as §4, §5
compound,measurement,setting,value
CC(=O)O[C@@]12CO[C@@H]1C[C@H](O)[C@@]1(C)C(=O)[C@H](OC(=O)C3CC3)C3=C(C)[C@@H](OC(=O)[C@H](O)[C@H](C=C(C)C)NC(=O)OC(C)(C)C)C[C@@](O)([C@@H](OC(=O)c4ccccc4)[C@H]21)C3(C)C [SBT-1214],residual tumors without viable cells and without colonies in culture,[1],Four of six
same,residual tumors without viable cells and without colonies in culture,[2],three of six
same,ability to induce secondary 3D spheroids or collagen-adherent colonies,[3],lost their ability to induce both secondary 3D spheroids
same,expression of key regulators of pluripotency,[4],significantly inhibited
same,c-Myc and Sox2 expression,[5],moderate down-regulation
same,cell death,[6],up to 60%
same,ratios of cells with highest expression of CD133,[7],increased the ratios
same,tumor size,"[8]; 40, 20, 20, 20 mg/kg weekly i.v.",more significant tumor regression; also recorded: dramatic reduction in tumor size
same,tumor size,"[8]; 40, 40, 40 mg/kg weekly i.v., by the third treatment",dramatically shrunk
same,CD133+ cells killed,"[9]; 48-72 hours, 10 nM to 10 μM, stated as up to",up to 60%
same,systemic toxicity,"[10]; 40, 20, 20, 20 mg/kg weekly",much lower systemic toxicity
same,systemic toxicity,"[10]; 40, 40, 40 mg/kg weekly",all mice expressed common signs of systemic toxicity
same,expression of p21 and p53,[11],induced expression
same,tumor regression,[12],complete regression
same,cytotoxicity at lower concentrations compared to 10 μM,"[13]; 100 nM-1 μM versus 10 μM, 48-72 hours",higher cytotoxicity
same,cell death,"[13]; 72 hours, 10 nM-10 μM, stated as up to",up to 65%
"COc1cc(/C=C/C(=O)CC(=O)/C=C/c2ccc(O)c(OC)c2)ccc1O [curcumin, diferuloylmethane]",concentration dependence of effect on prostate CD133+ cells,[9]; single agent,biphasic effects
